# Measurements reported in patent US12559471B2, “1,5-dihydro-2,4-benzodiazepine-3-one derivative and application thereof” (JIANGSU NHWA PHARMACEUTICAL CO., LTD, priority 2020, dated 2026).
# pIC50, pKi: −log10 of the molar value. Values joined by “and” are separate entries in the source; they are usually repeats but may differ in a detail not shown here. Equal entries are not always repeated.
# How the values were obtained:
# [1] = molecular target: 5-HT2A receptor (Homo sapiens (Human), UniProt P28223); assay: Competitive 5-HT2A receptor binding assay (3H-Ketanserin, CHO-5-HT2A membrane)
# Experimental: 1) Preparation of CHO-5-HT2A Receptor Membrane
# The precipitate was collected, and the supernatant was discarded. The solution B was added into the precipitate. […] The supernatant was carefully discarded, and the solution B was added into the precipitate again. […] The precipitate obtained was stored at −80° C.
# 1) Competitive 5-HT2A Receptor Binding Assay
# Step 2: 100 μL of the membrane preparation was added into each reaction tube.
# After the filtration, the filter membrane was dried at 60° C. and added into a scintillation disc attached with a bottom membrane, which was then added with 40 μL of scintillation liquid, sealed with a top membrane, and left to stand.
# [2] = molecular target: hERG potassium channel (Homo sapiens (Human), UniProt Q12809); assay: In vitro hERG assay, whole-cell patch clamp in HEK-293 cells; type: cell-based; conditions: HEK-293 cells stably expressing hERG, room temperature
# Experimental: b. […] The working solutions of the test compounds were ultrasonically treated for 20 min.
# The cell suspension was gently pipetted to separate the aggregated cells.
# Under an inverted microscope, recording electrodes were controlled by a glass electrode micromanipulator (micromanipulation) to contact with the cell. […] After forming the GΩ seal, a rapid capacitance compensation was given.
# Negative control and test compounds flowed through the recording chamber in an ascending order of concentration by gravity perfusion to quickly act on the cells. During the recording, the extracellular fluid was continuously circulated by a vacuum pump. […] Each concentration was allowed to act for 5 min or until the current was stabilized. All experiments were performed at room temperature.
# [formula] Basic statistics were calculated for each concentration, including mean, standard deviation (SD), standard error (SE), and replicates (n). The dose-dependent curve was fitted with the following equation and the half maximal inhibitory concentration (IC50) of the test compounds was calculated:
# Curve fitting and calculation of IC50 were performed by GraphPad Prism 5.0 software. 5. Experimental Results
# [3] = test system: MPTP+APO-induced climbing behavior in male mice; assay: MPTP+APO-induced climbing behavior in male mice (DA motor deterioration model); type: in vivo; conditions: observation in words
# Experimental: 1.2 Effect on MPTP+APO-induced climbing behavior in male mice (DA motor deterioration model) Animals were injected with different doses of MPTP intraperitoneally every morning for 5 consecutive days. […] After the subcutaneous injection, animals were immediately placed into a climbing cage (self-made, a cylindrical cage with the diameter of 13 cm and the height of 15 cm, made of a stainless steel wire mesh with the diameter of about 0.1 cm, the bottom of which is a semitransparent polyethylene plate, and the cage cover of which is a stainless steel cage cover), and the behaviors of animals at minutes 10-11, 20-21 and 30-31 after the APO injection was observed and scored.
# Scoring criteria: four feet on the floor scored 0; two forepaws on the cage scored 1; and four feet on the cage scored 2.
# [4] = test system: DOI-induced head shaking behavior of mice; assay: DOI-induced head shaking (head thrust) test in mice; type: in vivo; conditions: Mus musculus, intragastric, DOI 1 mg/kg i.p., 0-20 min, read-out: ED50 for inhibiting the DOI-induced head shaking behavior
# Experimental: 1. Head Thrust Test in Mice
# Mice were stratified according to body weight and then randomly divided into a model control group, a blank control group and drug administration groups. 1 h after the intragastric administration of a vehicle or a drug, the animals were placed in a beaker (with the diameter of 13 cm and the height of 19 cm) paved with fresh padding, and were injected with a modeling drug DOI ((±)-1-(2,5-dimethoxy-4-iodophenyl)-2-aminopropane hydrochloride or (±)-2,5-dimethoxy-4-iodoamphetamine hydrochloride) intraperitoneally at a dose of 1 mg/kg. The head shaking times of the mice during the 0-20 min after the intraperitoneal injection of DOI were recorded. The head shaking behavior is defined as a rapid rotational twitching or wet dog-like shaking of the mouse head, which is distinguished from normal grooming or exploring behavior.
# [5] = test system: MK-801-induced high activity behavior of mice; assay: Dizocilpine (MK-801)-induced high activity test in mice; type: in vivo; conditions: Mus musculus, 1 h, intragastric, MK-801 0.3 mg/kg i.p., 60 min, read-out: ED50 for inhibiting the MK-801-induced high activity behavior
# Experimental: 2. Dizocilpine (MK-801)-Induced High Activity Test in Mice 2.1 Test Method
# Mice were stratified according to body weight and then randomly divided into a model control group, a blank control group and drug administration groups. After the administration of a test substance (or a control substance), the mice were placed into an autonomous activity test box (a black polyethylene box with the specification of 29 cm×29 cm×30 cm) for adaptation, and injected with MK-801 at 0.3 mg/kg intraperitoneally 1 h after the intragastric administration. The mice were then placed into the autonomous activity test box for video recording for 60 min. Video analysis was performed after the video recording to evaluate the activity of the mice.
# [6] = test system: DOI-induced PPI impairment in rats; assay: DOI-induced PPI impairment test in rats (intervention test); type: in vivo; conditions: DOI 0.5 mg/kg
# Experimental: 3. DOI ((f)-1-(2,5-dimethoxy-4-iodophenyl)-2-aminopropane hydrochloride or (f)-2,5-dimethoxy-4-iodoamphetamine hydrochloride) induced PPI impairment effect test in rats
# 30 min after the intragastric administration of a drug (or a vehicle) and 30 min after the subcutaneous injection of DOI at 0.5 mg/kg at the neck, namely 60 min after the intragastric administration, the rats were placed into a startle reflex test box for testing.
# The test was performed according to literature and preliminary experiments, and the specific process was as follows: first an adaptation period of 5 min was given (62 dB background sound), and 5 separate startle reflex stimuli were given after the adaptation period (blockl, results not included in the analysis to reduce the initial response of the animals to a plateau level), followed by 4 different types of tests (block2) presented in a pseudo-random manner, namely: 1) startle reflex stimulus alone (pulse-alone, 120 dB, lasting 20 ms); 2) prepulse stimulus alone 13 dB above the background sound (prepulse-alone, 75 dB, lasting 20 ms); 3) prepulse stimulus in combination with startle reflex stimulus, each lasting 20 ms, with an interval of 100 ms; and 4) no stimulus in which only the background sound was given (no stimulus). Each trial was performed 5 times, with an average interval of 20 s (10-30 s) between trials.
# The response amplitude of the startle reflex stimulus alone or the prepulse stimulus in combination with startle reflex stimulus was expressed as the AVG (instrument-specific unit) value, which indirectly reflects the size of the flinching response of the rat body. Evaluation index: PPI %=(1−response amplitude of prepulse stimulus in combination with startle reflex stimulus/response amplitude of startle reflex stimulus alone)×100. The higher the value is, the greater the degree of the inhibition is.
# [7] = molecular target: 5-HT2C receptor (Rattus norvegicus (Rat), UniProt P08909); conditions: read-out: 5-HT2C (Ki value); rat cortex membrane, 3H-Mesulergine
# Chain of 5-HT2C receptor (P08909 33-460): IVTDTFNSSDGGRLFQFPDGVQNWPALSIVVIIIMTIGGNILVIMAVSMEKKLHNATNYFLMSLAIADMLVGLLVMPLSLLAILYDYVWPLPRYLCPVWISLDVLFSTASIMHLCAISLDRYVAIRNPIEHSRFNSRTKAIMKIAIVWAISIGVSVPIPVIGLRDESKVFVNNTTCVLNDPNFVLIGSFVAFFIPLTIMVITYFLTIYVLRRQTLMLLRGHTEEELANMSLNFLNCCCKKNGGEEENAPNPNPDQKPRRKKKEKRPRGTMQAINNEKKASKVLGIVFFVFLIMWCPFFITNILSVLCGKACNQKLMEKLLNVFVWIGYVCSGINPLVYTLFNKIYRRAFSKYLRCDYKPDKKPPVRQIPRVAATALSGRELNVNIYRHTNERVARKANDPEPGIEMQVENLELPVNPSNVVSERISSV
# Experimental: 2) Preparation of 5-HT2C Membrane
# The rat cortex was taken out of a refrigerator at −80° C. and thawed spontaneously. The solution A was added, and the mixture was homogenized for 3-4 s at 4th gear for a total of 4 times and centrifuged at 50000 g for 25 min at 4° C. The supernatant was discarded, and the solution A was added into the precipitate. The mixture was mixed well using a vortex mixer and centrifuged at 50000 g for 25 min at 4° C. (repeated twice). The supernatant was discarded after the centrifugation, and the precipitate was stored at −80° C. for later use.
# 2) Competitive 5-HT2C Receptor Binding Assay
# Step 1: the prepared membrane was suspended in the homogenate B to obtain a 210 mg/mL membrane suspension for later use.
# Step 2: 100 μL of the membrane suspension was added into each reaction tube.
# Step 3: 100 μL of the solution B was added into a total binding tube (TB), 100 μL of Ketanserin (final concentration: 1.0×10^−5 M) was added into a non-specific binding tube (NB), and 100 μL of test compound was added into each compound binding tube (CB).
# Step 4: 10 μL of radioligand ^3H-Mesulergine was added into each reaction tube to reach a final concentration of 3 nM.
# Step 5: each reaction tube was incubated at 37° C. for 25 min. After the reaction was completed, the binding ligands were rapidly filtered under reduced pressure, wherein the Whatman test paper GF/C was washed with 0.5% PEI solution 1 h in advance. The filter membrane was fully washed with cold Tris buffer solution, taken out and put into a 4 mL scintillation disc, which was then added with 1 mL toluene scintillation solution and shaken for mixing well.
# Step 6: the scintillation disc was put into a liquid scintillation counter for counting.
# Chain of 5-HT2A receptor (P28223 whole entry): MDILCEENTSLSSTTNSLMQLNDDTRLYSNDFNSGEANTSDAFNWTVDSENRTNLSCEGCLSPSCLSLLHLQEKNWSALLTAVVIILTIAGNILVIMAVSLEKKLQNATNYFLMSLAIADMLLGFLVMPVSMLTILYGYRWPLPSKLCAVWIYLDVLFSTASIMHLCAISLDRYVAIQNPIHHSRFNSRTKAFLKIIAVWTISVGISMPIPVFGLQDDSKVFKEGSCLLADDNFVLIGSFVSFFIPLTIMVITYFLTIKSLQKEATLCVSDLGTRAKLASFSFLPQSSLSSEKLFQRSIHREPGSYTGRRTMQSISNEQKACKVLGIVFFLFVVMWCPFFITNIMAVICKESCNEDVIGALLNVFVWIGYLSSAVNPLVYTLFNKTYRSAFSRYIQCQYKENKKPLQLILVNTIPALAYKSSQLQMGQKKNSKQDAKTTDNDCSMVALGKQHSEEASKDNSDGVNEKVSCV
# Chain of hERG potassium channel (Q12809 whole entry): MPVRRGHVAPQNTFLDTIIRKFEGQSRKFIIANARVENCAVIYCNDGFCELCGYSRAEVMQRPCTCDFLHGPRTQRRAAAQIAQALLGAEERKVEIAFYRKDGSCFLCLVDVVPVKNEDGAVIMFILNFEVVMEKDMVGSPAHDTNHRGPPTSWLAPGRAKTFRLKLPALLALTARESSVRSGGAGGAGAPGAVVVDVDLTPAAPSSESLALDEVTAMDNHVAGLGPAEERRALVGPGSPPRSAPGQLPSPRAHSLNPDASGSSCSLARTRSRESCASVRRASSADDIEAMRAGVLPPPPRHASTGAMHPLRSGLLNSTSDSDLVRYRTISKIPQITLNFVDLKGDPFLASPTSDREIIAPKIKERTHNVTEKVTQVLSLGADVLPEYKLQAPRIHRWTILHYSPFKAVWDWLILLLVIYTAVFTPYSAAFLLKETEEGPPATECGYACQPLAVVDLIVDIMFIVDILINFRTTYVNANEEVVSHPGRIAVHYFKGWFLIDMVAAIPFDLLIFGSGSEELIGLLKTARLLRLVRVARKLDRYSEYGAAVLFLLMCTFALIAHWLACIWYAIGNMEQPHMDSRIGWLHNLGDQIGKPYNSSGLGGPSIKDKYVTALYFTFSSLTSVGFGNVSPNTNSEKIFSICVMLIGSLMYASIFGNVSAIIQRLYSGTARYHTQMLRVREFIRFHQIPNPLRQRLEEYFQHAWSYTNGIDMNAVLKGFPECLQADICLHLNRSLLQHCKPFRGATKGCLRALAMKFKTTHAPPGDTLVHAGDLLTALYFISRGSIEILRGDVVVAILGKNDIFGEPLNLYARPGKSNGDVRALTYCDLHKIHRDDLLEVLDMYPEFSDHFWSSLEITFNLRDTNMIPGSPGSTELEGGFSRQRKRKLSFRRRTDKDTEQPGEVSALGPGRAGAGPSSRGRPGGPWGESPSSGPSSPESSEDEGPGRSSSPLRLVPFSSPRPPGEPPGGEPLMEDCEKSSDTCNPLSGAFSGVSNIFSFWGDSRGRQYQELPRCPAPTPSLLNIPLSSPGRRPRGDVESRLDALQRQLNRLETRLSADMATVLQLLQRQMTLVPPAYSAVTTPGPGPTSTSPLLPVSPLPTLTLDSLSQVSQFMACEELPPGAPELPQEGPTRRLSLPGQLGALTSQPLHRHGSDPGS
compound,measurement,setting,value
"CC(C)COc1ccc(CN2Cc3ccc(F)cc3CN(C3CCN(C)CC3)C2=O)cc1 [NH-K-A19005, 8-fluoro-2-(1-methylpiperidin-4-yl)-4-[[4-(2-methylpropoxy)phenyl]methyl]-1,5-dihydro-2,4-benzo diazepine-3-one]",pKi,"[1]; CHO-5-HT2A membrane, 3H-Ketanserin, read-out: 5-HT2A (Ki value)",9.37
same,2C/2A,[1]; ratio of 5-HT2C Ki to 5-HT2A Ki,7.907
same,pIC50,[2],5.50
same,motor deterioration (DA mechanism of action),[3],no motor deterioration is observed
same,ED50,[4],0.15 mg/kg
same,ED50,[5],1.01 mg/kg
same,reversal of DOI-induced PPI impairment,"[6]; 3 mg/kg, P<0.05",significantly reverse
same,"PPI %, MEAN",[6]; 1 mg/kg intragastric,40.15%
same,"PPI %, individual animal",[6]; 1 mg/kg intragastric,55.27% and 13.13% and 49.29% and 40.22% and 11.24% and 71.74%
same,"PPI %, MEAN",[6]; 3 mg/kg intragastric,42.95%
same,"PPI %, individual animal",[6]; 3 mg/kg intragastric,36.23% and 53.57% and 36.93% and 47.37% and 45.54% and 61.94% and 38.90% and 23.16%
same,"PPI %, MEAN",[6]; 10 mg/kg intragastric,52.40%
same,"PPI %, individual animal",[6]; 10 mg/kg intragastric,86.67% and 28.57% and 78.84% and 65.78% and 63.08% and 0.38% and 52.03% and 43.86%
same,pKi,[7],8.47
